Measured values taken from US20080194877A1, “Benzamidine Derivatives for Treatment and Prevention of Cancer Therapy Induced Mucositis” ([…].p.A., priority 2005, published 2008).
Values joined by “and” are separate entries in the source; they are usually repeats but may differ in a detail not shown here. Equal values may be shown once. Read-outs that look alike come from different tables or passages of the source.

Legend:
[1] = tested on: ROS generation in human PMNL; experiment: Inhibition of luminol-dependent chemiluminescence (ROS generation) in PMA-activated human PMNL; assay type: cell-based; conditions: for IC50: 0.1 μM PMA
Procedure: Background to the assay: One of the most important events involved in the intracellular cascade leading to NF-kB activation is the generation of oxidative stress and the increase of ROS; the inhibition of these species can contribute to reduce the direct damage to DNA and subsequent clonogenic cell death, and also to diminish the transcription factors activation. The effect of compound 1.1 on luminol-dependent chemiluminescence assay was assessed in human PMNL.
Human neutrophils were obtained from healthy volunteers. Blood was anti-coagulated with Na-Citrate 0.38% and neutrophils were purified according to Boyum (Boyum A. Scand J Clin Invest 1968;21:77-89). The neutrophil purification was achieved by gradient centrifugation on Histo-paque at 400 g for 30 min. Resulting neutrophils were suspended in PBS plus 0.87 mM CaCl2, 1 mM MgCl2, counted, and diluted to 2.5×10^6/ml. Neutrophil suspension was premixed with luminol (5 μM final). A 200 μl-aliquot of cell suspension was incubated into a 96-well plate, with drugs for 10 min at 37° C. Neutrophils were activated with 0.1 μM phorbol 12-myristate 13-acetate (PMA) and the light emission was monitored at 3 min intervals for 24 min in a HTS7000 plus microplate reader. Results were expressed as reduction of the fluorescent signal recorded for cell activated with PMA alone.
Activation of neutrophils with 0.1 μM PMA induced a time-dependent increase in signal luminescence, with a maximal increase within 10-12 min. […] The data are illustrated in FIG. 1.

IL-1β = experiment: LPS-induced IL-1β release in rat peritoneal macrophages; assay type: cell-based; conditions: LPS 1 μg/ml, 24 h
Description: (§1) Background to the assay: Nuclear factor-κB (NF-κB), a key element in the genesis of mucositis, has the capacity to upregulate a large panel of genes, including those that result in the production of pro-inflammatory cytokines, TNFα, IL-1 and IL-6, all leading to apoptosis and tissue injury, and to up-regulate genes that can cause the expression of iNOS and cyclooxygnase-2. The third phase of mucositis is indeed characterized by the amplification of signaling triggered by pro-inflammatory cytokines. The effect of compound 1.1 was assessed in rat peritoneal macrophages.
(§2) Primary cell cultures were obtained from male albino rats (SD, 200-250 g, Harlan, Italy), as described in Methods in Enzymology (Methods in Enzymology, vol. LVIII, pages 494-506). Cells were stimulated, the day after plating, with LPS, 1 μg/ml or 0.1 μg/ml as stated, for 24 h. Compounds were added 20 min before stimulation. The stimulation was performed in DMEM, 1 g/l glucose, 50 μg/ml gentamicin. Supernatants and cell lysates were collected and stored at −80° C. until use. Cytokine quantisation in supernatants was determined by means of commercially available ELISA Kits for rat TNFα, rat IL-1β and rat IL-6 (Amersham).
(§3) Activation of macrophages with 1 μg/ml LPS induced an increase over basal in cytokine production.

IL-6 = experiment: LPS-induced IL-6 release in rat peritoneal macrophages; assay type: cell-based; conditions: LPS 1 μg/ml, 24 h
Description: as §1, §2, §3

TNFα = experiment: LPS-induced TNFα release in rat peritoneal macrophages; assay type: cell-based; conditions: LPS 1 μg/ml, 24 h
Description: as §1, §2, §3

iNOs protein expression = experiment: LPS-induced iNOS protein expression in rat macrophages (Western blot); assay type: cell-based; conditions: 30 μM; LPS 0.1 μg/ml, 24 h
Procedure: as §2
(§4) Western blot analysis of iNOS and COX-2: Cell lysates were analyzed by SDS-PAGE. Proteins were transferred onto PVDF membranes and saturated in blocking buffer. Membranes were incubated for 2 h at RT with the following antibodies: anti-COX-2, anti-iNOS, anti-β-actin and further incubated with a secondary antibody for 45 min at RT. Detection was performed using ECL (Amersham). Quantisation was determined by densitometry analysis using NIH Image software.
(§5) Evaluation of mediator of inflammation such as iNOS and COX-2, was performed in macrophages stimulated with 0.1 μg/ml LPS for 24 h. […]

COX-2 protein expression = experiment: LPS-induced COX-2 protein expression in rat macrophages (Western blot); assay type: cell-based; conditions: 30 μM; LPS 0.1 μg/ml, 24 h
Procedure: as §2, §4, §5

rat gastric mucosa = experiment: Gastric ulcer induced by indomethacin in rat; assay type: in vivo
Description: Indomethacin induces the formation of acute gastric mucosal lesions. The histologic damage is represented by necrosis with loss of surface epithelium, submucosal oedema and leukocyte infiltration. The mechanism involves a neutrophil-dependent process inducing a variety of inflammatory mediators such as reactive oxygen species, and direct detrimental action by indomethacin on processes linked to epithelial proliferation and apoptosis. The epithelial repairing process is due to continuity of epithelial cells with healthy cells of gastric pits that can migrate to the basement membrane; re-epithelialization and reconstruction of the mucosal architecture is under the control of growth factors produced locally by regenerating cells.
20 male SD rats (140-160) were used. The animals were deprived of food but not water 24 hours prior the experiment. Gastric ulcer was induced in conscious rats by oral administration of 10 mg/kg/4 ml of indomethacin, suspended in methylcellulose 0.5%. The tested drug was administered 30 min by gavage (os), or 15 min by subcutaneously (sc), before indomethacin.
Four hours after indomethacin administration, the animals were sacrificed by excess of ether. The stomach was dissected out, opened along the greater curvature, and the mucosa was examined by an observer who was unaware of the treatment given. The extent of ulcers was measured with a 10× binocular fitted with a 0.1 mm-division scale. Data are presented as total length of ulcers per group.
The animals were divided into 4 groups of 5 animals, and were treated as follows:
Groups: • 1. 10 mg/kg Compound 1.1, administered prior to 10 mg/kg indomethacin, os. • 2. 5 mg/kg Compound 1.1, administered prior to 10 mg/kg indomethacin, os. • 3. 1 mg/kg Compound 1.1, administered prior to 10 mg/kg indomethacin, os. • 4. vehicle, administered prior to 10 mg/kg indomethacin, os.
Compound 1.1 was given at 1, 5 and 10 mg/kg prior to indomethacin. […] In Compound 1.1 treated groups the levels of ulcerated animals decreased dose-dependently.

[2] = tested on: clonogenic crypt cells of the small intestine; experiment: Mouse mucositis model (clonogenic crypt cell death induced by whole body irradiation); assay type: in vivo; conditions: for crypt width (μm) / no. crypts/circumference: average +/− sd; for corrected crypts/circumference: corrected for crypt width
Description: There are thought to be between four and sixteen actual stem cells in each crypt of the small intestine. There are also a further reserve of clonogenic cells which are capable of regenerating the crypt when all the actual stem cells have been killed. The survival of these clonogenic cells is therefore key to the survival of the crypt and the restoration of an intact epithelial lining following cytotoxic injury (only one clonogenic cell needs to survive to ensure the survival of the crypt, and therefore the maintenance of an intact epithelium). Growth factors and other molecules can be used to manipulate the sensitivity of these cells to cytotoxic agents, and thereby reduce the severity of gastrointestinal and oral mucositis. Factors given prior to a cytotoxic insult may increase clonogenic cell number (thereby increasing the probability of clonogen survival) or act to arrest the cell cycle in such cells (thereby making them more resistant to damage or death). […] A combination of both protocols could give maximum protection to the epithelium.
The effects of administration for 3 days before radiation exposure were tested.
30 adult male BDF1 mice (aged 10-12 weeks) were used. The animals were housed for 2 weeks in individually ventilated cages on a 12 hr light:dark cycle to stabilize the circadian rhythm. Animals were allowed food and water ad libitum throughout.
The animals were divided into 5 groups of 6 animals, and were treated as follows:
Groups: • 1. Gavage 20 mg/kg Compound 1.1 72, 48 and 24 hrs prior to 13Gy X-ray exposure (whole body). • 2. Gavage 10 mg/kg Compound 1.1 72, 48 and 24 hrs prior to 13Gy X-ray exposure (whole body). • 3. Gavage 5 mg/kg Compound 1.1 72, 48 and 24 hrs prior to 13Gy X-ray exposure (whole body). • 4. Gavage vehicle 72, 48 and 24 hrs prior to 13Gy X-ray exposure (whole body). • 5. Untreated, un-irradiated controls.
Intestinal damage was induced using a single dose of 13Gy X-irradiation. Four days after irradiation the animals were sacrificed. The small intestine was removed and fixed in Carnoy's fixative prior to processing for histological analysis. 3 μm sections were cut and stained with haematoxylin and eosin. Foci of regeneration (surviving crypts with one or more clonogenic cells) were clearly visible in the irradiated sections. Other than these foci the mesenchyme was entirely denuded; these animals would develop diarrhea and die due to mucositis if allowed to live beyond four days.
For each animal ten intestinal circumferences were analyzed (60 per group)—a circumference is equivalent to a given length of intestine and therefore a convenient baseline unit of length. The number of surviving crypts per circumference was scored and the average per group determined. Only crypts containing 10 or more strongly haematoxylin and eosin stained cells (excluding Paneth cells) and only intact circumferences not containing Peyers patches were scored (Peyers patches influence both the number of crypts in a normal circumference and the ability of a crypt to survive insult).
The average crypt width (measured at its widest point) was also measured in order to correct for scoring errors due to crypt size difference. The correction is applied thus: Corrected number of crypts/circumference=

[3] = 25° C.
[4] = 5 mg/kg, both administration protocols (os, sc)
[5] = 5 mg/kg gavage for 3 days pre 13Gy irradiation
[6] = 10 mg/kg gavage for 3 days pre 13Gy irradiation
[7] = 20 mg/kg gavage for 3 days pre 13Gy irradiation

CCCCCNC(=S)Nc1ccc(NC(C)=N)cc1 [Compound 1.1, N-[4-(N-acetamidine)phenyl]-N′-pentyl thiourea]
% of inhibition of chemiluminescence ([1]; 1 μM): 20%
Inhibition of ROS generation ([1]; 30 μM (data not shown)): completely inhibited ROS generation
IC50 ([1]; rising phase, at 15 min, read-out: IC50 luminol-enhanced chemiluminescence, rising phase): 6.4 ± 0.6 µM
IC50 ([1]; steady phase, at 24 min, read-out: IC50 luminol-enhanced chemiluminescence, steady phase): 2.9 ± 0.2 µM
IC50 (IL-1β): 30 µM
IC50 (IL-6): 63 µM
IC50 (TNFα): 54 µM
% of inhibition iNOs protein expression (iNOs protein expression): 79%
% of inhibition COX-2 protein expression (COX-2 protein expression): 53%
Effectiveness against ulcer at the lower dose (rat gastric mucosa; 1 mg/kg): effective only in the os protocol administration
Reduction of extent of ulceration (rat gastric mucosa; 5 mg/kg): 80-90%
Incidence of ulcer (animals per group) (rat gastric mucosa; [4]): 3/5
Incidence of ulcer reduced to (rat gastric mucosa; [4]): ~50%
Ulcerated animals (maximal effect) (rat gastric mucosa; 10 mg/kg prior to 10 mg/kg indomethacin): no animals ulcerated
Survival and adverse effects (rat gastric mucosa; rat, 1, 5 and 10 mg/kg): no obvious adverse effects
crypt width (μm) [2, 5]: 68.54 +/− 6.6 μm
no. crypts/circumference [2, 5]: 9.6 +/− 3.4
corrected crypts/circumference [2, 5]: 4.7 +/− 1.3
crypt width (μm) [2, 6]: 68.25 +/− 2.4 μm
no. crypts/circumference [2, 6]: 9.2 +/− 4.7
corrected crypts/circumference [2, 6]: 4.5 +/− 2.4
Increase of crypt survival versus vehicle ([2]; 20 mg/kg): 1.9 ×
crypt width (μm) [2, 7]: 66.19 +/− 3.0 μm
no. crypts/circumference [2, 7]: 13.2 +/− 5.7
corrected crypts/circumference [2, 7]: 6.7±3.0 and 6.7 +/− 3.0
Circumferences without surviving crypt ([2]; 20 mg/kg, 4% of circumference in vehicle treated mouse): prevented the absence of surviving crypt
Increase of crypt survival versus vehicle ([2]; lower doses (5 and 10 mg/kg)): about 1.3 times
Survival and adverse effects ([2]; mouse, 5, 10 and 20 mg/kg): no obvious adverse effects

CCCCCNC(=S)Nc1ccc(NC(C)=N)cc1.CS(=O)(=O)O [Methanesulphonate, N-[4-(N-acetamidine)phenyl]-N′-pentyl thiourea methanesulphonate]
Solubility in water [3]: >32 mg/mL
Solubility in water (%) [3]: >32%

CCCCCNC(=S)Nc1ccc(NC(C)=N)cc1.O=C(O)/C=C\C(=O)O [Maleate, N-[4-(N-acetamidine)phenyl]-N′-pentyl thiourea maleate]
Solubility in water [3]: 3.12 mg/mL
Solubility in water (%) [3]: 0.31%
